Measurements reported in ChEMBL document CHEMBL1130311, “Design and synthesis of a possible mimic of a thrombin-binding DNA aptamer” (Bioorg Med Chem Lett, 1997).
The source made the active and inactive calls. The calls are words filed in the database; no cut-off is given here.

Biological target: Prothrombin (Homo sapiens) (UniProt P00734)
Assay: Tested for thrombin inhibitory activity by fibrinogen dependent thrombin assay; Inactive

Activity: inactive
SMILES: Cc1cn([C@H]2C[C@@H]3OP(=O)(O)OC[C@H]4O[C@@H](n5cnc6c(O)nc(N)nc65)C[C@@H]4OP(=O)(O)OC[C@H]4O[C@@H](C[C@@H]4OP(=O)(O)OC(C)C)n4cc(c(=O)[nH]c4=O)COCOC[C@H]3O2)c(=O)[nH]c1=O
